From patent publication US7226904B2, “Agents and methods for promoting bone growth” (priority 2000, dated 2007)
Peptide text beside a SMILES is read from it. * marks the point of attachment. αGalNAc = CC(=O)N[C@@H]1[C@@H](O)[C@@H](O)[C@@H](CO)O[C@@H]1*

Test system: normal adult rats
Assay: Systemic (subcutaneous) administration to normal adult rats, pQCT bone densitometry of tibia
Format: in vivo, rat
Conditions: 0.4 ng/g B.W. every 2 days for two weeks, vs saline
Description: After humane sacrifice, long bones were collected from rats subjected to agent treatment as described in Examples 1 and 2. The bones were evaluated using densitometry techniques with the Norland Medical Systems pQCT scanner. The densitometric parameters that were determined included: • 1. Total Content, which is the mineral content of the bone within a 1 mm slice. • 2. Total Density, which is the mean density of the total bone. • 3. Trabecular Content, which is the mineral content of the trabecular bone within a 1 mm slice. • 4. Trabecular Density, which is the mean density of the trabecular bone • 5. Cortical Content, which is the mineral content of the cortical bone within a 1 mm slice. • 6. Cortical Density, which is the mean density of the […]. • 7. Periosteal circumference in the “circular ring model” in mm. • 8. Endosteal circumference in the “circular ring model” in mm. • 9. Total area (mm^2), which is the cross sectional area of the bone after the soft tissue has been peeled off. • 10. Cortical area (mm^2), which is the area assigned to be pure cortical. • 11. Trabecular area (mm^2), which is the cross sectional area of the trabecular area after the cortical and subcortical area has been peeled off. Effects of Agents on Bone Density:
Non-glycosylated fADBP, at a dosage of 0.4 ng/g of body weight, was administered by subcutaneous injection into normal adult rats every two days for two weeks. The effect of this treatment on bone density and DpD levels was assayed as described above.
Glycosylated fADBP, at a dosage of 5.0 ng/g of body weight was administered by subcutaneous injection into normal adult rats every two days for two weeks. The effect of this treatment on bone density was assayed as described above.
Non-glycosylated DBP peptides of different lengths, at a dosage of 0.4 ng/g of body weight, were administered by subcutaneous injection into normal adult rats every two days for two weeks. The DBP peptides were derived from fADBP and comprised the first 3, 4, 5, 6, 7, 8, 9, 10, 11, 12, and 13 amino acids of SEQ ID NO. 1. After humane sacrifice, the tibia was collected from control and DBP peptide treated rats and analyzed using densitometry techniques with the Norland Medical Systems pQCT scanner. Statistical analysis was performed

Question: For “DBP peptide 3: first 3 amino acids of SEQ ID NO. 1 (Thr Pro Thr) (TPT; listed as Homo sapiens)”, which “Total Bone Density” value is on record?
Answer: significantly increased

Question: “DBP peptide 4: first 4 amino acids of SEQ ID NO. 1 (Thr Pro Thr Glu) (TPTE; listed as Homo sapiens)” was tested. Which “Total Bone Density” value did it give?
Answer: significantly increased

Question: How did the “Total Bone Density” value turn out when “DBP peptide 5: first 5 amino acids of SEQ ID NO. 1 (Thr Pro Thr Glu Leu) (TPTEL; listed as Homo sapiens)” was run?
Answer: significantly increased

Question: With “DBP peptide 6: first 6 amino acids of SEQ ID NO. 1 (Thr Pro Thr Glu Leu Ala) (TPTELA; listed as Homo sapiens)” as the compound, how does the “Total Bone Density” value read?
Answer: significantly increased

Question: Which “Total Bone Density” value does the source give for “DBP peptide 7: first 7 amino acids of SEQ ID NO. 1 (Thr Pro Thr Glu Leu Ala Lys) (TPTELAK; listed as Homo sapiens)” here?
Answer: significantly increased

Question: With “DBP peptide 8: first 8 amino acids of SEQ ID NO. 1 (Thr Pro Thr Glu Leu Ala Lys Leu) (TPTELAKL; listed as Homo sapiens)” as the compound, how does the “Total Bone Density” value read?
Answer: significantly increased

Question: With “DBP peptide 10: first 10 amino acids of SEQ ID NO. 1 (Thr Pro Thr Glu Leu Ala Lys Leu Val Asn) (TPTELAKLVN; listed as Homo sapiens)” as the compound, how does the “Total Bone Density” value read?
Answer: significantly increased

Question: “DBP peptide 11: first 11 amino acids of SEQ ID NO. 1 (Thr Pro Thr Glu Leu Ala Lys Leu Val Asn Lys) (TPTELAKLVNK; listed as Homo sapiens)” was tested. Which “Total Bone Density” value did it give?
Answer: significantly increased

Question: Which “Total Bone Density” value does the source give for “DBP peptide 12: first 12 amino acids of SEQ ID NO. 1 (Thr Pro Thr Glu Leu Ala Lys Leu Val Asn Lys Arg) (TPTELAKLVNKR; listed as Homo sapiens)” here?
Answer: significantly increased

Test system: Ovariectomized Sprague-Dawley rats
Assay: High-dose administration to ovariectomized Sprague-Dawley rats
Format: in vivo
Conditions: 100 ng/g to 30 μg/g body weight every day for 60 days
Description: Ovariectomized Sprague-Dawley rats were allowed to lose bone from 60 days. Thereafter, animals were injected with glycosylated fADBP or non-glycosylated fADBP, at concentrations ranging from 100 ng/g of body weight to 30 μg/g of body weight every day for 60 days.

Question: Which toxic effect does the source give for CC(=O)N[C@H]1[C@@H](O[C@H](C)[C@H](NC(=O)[C@@H]2CCCN2C(=O)[C@@H](N)[C@@H](C)O)C(=O)N[C@@H](CCC(=O)O)C(=O)N[C@@H](CC(C)C)C(=O)N[C@@H](C)C(=O)N[C@@H](CCCCN)C(=O)N[C@@H](CC(C)C)C(=O)N[C@H](C(=O)N[C@@H](CC(N)=O)C(=O)N[C@@H](CCCCN)C(=O)N[C@@H](CCCNC(=N)N)C(=O)N[C@@H](CO)C(=O)N[C@@H](CCC(=O)O)C(=O)O)C(C)C)O[C@H](CO)[C@H](O)[C@@H]1O [Glycosylated fADBP] (H-TPT(αGalNAc)ELAKLVNKRSE-OH) here?
Answer: no detectable toxic effect
